# Source: BindingDB's records for doi:10.1021/jm00167a032 (Sankyo, 1990)
# Biological target: Arachidonate 5-lipoxygenase (Cavia porcellus)
# Assay: Evaluated for inhibition of the formation and release of 5-lipoxygenase in guinea pig peritoneal PMNL
row,Structure (SMILES),IC50 [nM]
1,Cc1c(C)c2c(c(C)c1O)SCO2,290
2,Cc1c(C)c2c(c(C)c1O)SC(CCC(N)=O)O2 (stereo unspecified),520
3,Cc1c(C)c2c(c(C)c1O)SC(c1ccccc1)O2 (stereo unspecified),71
4,CCCC1Oc2c(C)c(C)c(O)c(C)c2S1 (stereo unspecified),25

# More lines, now with the values ahead:
row,IC50 [nM],Structure (SMILES)
1,220,CCCCCCCC1Oc2c(C)c(C)c(O)c(C)c2S1 (stereo unspecified)
2,59,CCCCC1Oc2c(C)c(C)c(O)c(C)c2S1 (stereo unspecified)
